# Data published in US20250352679A1, “IN-SITU STE[…] VAPOR PHASE DEPOSITION” (Applied Materials, Inc., priority 2024, published 2025).
# Test system: bioburden of powdered lactose
# Experiment: Bioburden testing (US Pharmacopeia 61, colony count) of lactose powder after ozone sterilization in the reactor chamber
# Type: cell-based
# Settings: 50 g lactose powder, 5 hrs, 35° C., 10 rpm, 0 ppm control 1800 CFU/ml
# Experimental: (§1) Briefly, 50 grams of lactose powder was loaded into the reactor chamber. The chamber was evacuated to reach a pressure of 0.008 Torr and then 0.01 Torr. Then the chamber was filled with ozone at 25 sccm to 2 ppm, 10 ppm or 20 ppm. The ozone was kept in the chamber for 5 hrs. The reaction was held at 35° C. and the reactor chamber was rotated at 10 rpm. At the end of the 5 hour incubation time, the chamber was evacuated to reach a pressure of 0.01 Torr and purged with nitrogen. The lactose was then tested using US Pharmacopeia 61 testing. Briefly, the samples were incubated in petri-dishes and counted for colony forming units (cfu).
# as §1, with “ppm. Water vapor was also added at an ozone/water ratio of 1:10.” for “ppm.”, “test” for “tested”, “testing.” for “testing. Briefly, the samples were incubated in petri-dishes and counted for colony forming units (cfu).”
structure (smiles),measurement,setting,value
"O=[O+][O-] [Dry ozone, ozone]",Bioburden,ozone concentration 2 ppm,500 CFU/ml
same,Bioburden,ozone concentration 10 ppm,50 CFU/ml
same,Bioburden,ozone concentration 20 ppm,<1 CFU/ml
